The values that follow come from patent US8426419B2, “Tyrosine kinase inhibitors containing a zinc binding moiety” (Curis, Inc., priority 2006, dated 2013).

Where only a bound is given, the exact number is not on record here.

The subject of data set [1] is HDAC. The experiment in a line: HDAC fluorimetric assay kit (AK-500, Biomol), HeLa nuclear extract. In kind it is biochemical. On the procedure: HDAC inhibitors is screened using an HDAC fluorimetric assay kit (AK-500, Biomol, Plymouth Meeting, Pa.).
Each assay is setup as follows: Defrost all kit components and kept on ice until use. […] Prepare dilutions of Trichostatin A (TSA, positive control) and tested compounds in assay buffer (5× of final concentration). Dilute Fluor de Lys™ Substrate in assay buffer to 100 uM (50 fold=2× final). Dilute Fluor de Lys™ developer concentrate 20-fold (e.g. 50 μl plus 950 μl Assay Buffer) in cold assay buffer. Second, dilute the 0.2 mM Trichostatin A 100-fold in the 1× Developer (e.g. 10 μl in 1 ml; final Trichostatin A concentration in the 1× Developer=2 μM; final concentration after addition to HDAC/Substrate reaction=1 μM). Add Assay buffer, dilute trichostatin A or test inhibitor to appropriate wells of the microtiter plate. Add diluted HeLa extract or other HDAC sample to all wells except for negative controls.

Data set [2] has as its target T1, human Abl1 (Pro118-Ser553) (Homo sapiens, UniProt P00519).
T1 construct: human Abl1 (Pro118-Ser553); GST (N); purchased Cell Signaling Technologies; host or cells: baculovirus expression system
T1 sequence (P00519 118-553): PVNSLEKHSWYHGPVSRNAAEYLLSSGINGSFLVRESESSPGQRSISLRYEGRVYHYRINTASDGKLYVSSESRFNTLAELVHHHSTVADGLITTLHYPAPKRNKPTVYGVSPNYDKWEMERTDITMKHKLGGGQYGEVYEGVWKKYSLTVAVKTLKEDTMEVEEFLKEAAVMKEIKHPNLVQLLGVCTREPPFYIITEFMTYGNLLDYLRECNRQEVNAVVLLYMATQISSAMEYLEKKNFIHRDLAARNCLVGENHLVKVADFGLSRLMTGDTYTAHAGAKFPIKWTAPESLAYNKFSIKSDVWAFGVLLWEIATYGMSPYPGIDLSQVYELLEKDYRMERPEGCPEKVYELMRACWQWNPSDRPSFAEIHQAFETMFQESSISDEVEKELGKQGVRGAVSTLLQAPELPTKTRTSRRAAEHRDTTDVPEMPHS
Description: HTScan tyrosine kinase assay, Abl1. The note with it: read-out: ABL IC50. Type of data set: biochemical. On the procedure:
(§1) The proteins are purified by one-step affinity chromatography using glutathione-agarose. An anti-phosphotyrosine monoclonal antibody, P-Tyr-100, is used to detect phosphorylation of biotinylated substrate peptides (Abl1 and Src, Biotin-Signal Transduction Protein (Tyr160); c-Kit, Biotinylated-KDR (Tyr996); PDGFR-β, Biotinylated-FLT3 (Tyr589)). […] Data are plotted using GraphPad Prism (v4.0a) and IC50's are calculated using a sigmoidal dose response curve fitting algorithm.
(§2) Each assay is setup as follows: 100 μl of 10 mM ATP is added to 1.25 ml 6 mM substrate peptide. […] The enzyme is immediately transferred from −80° C. to ice. The enzyme is allowed to thaw on ice. […] 25 μl of 2× ATP/substrate cocktail is added to 25 μl/well preincubated reaction cocktail/compound. The reaction plate is incubated at room temperature for 30 minutes. […] 100 μl/well primary antibody is added and the mixture is incubated at room temperature for 60 minutes. The plates are again washed three times with 200 μl/well PBS/T. Europium labeled anti-mouse IgG is diluted 1:500 in PBS/T with 1% BSA. 100 μl/well diluted antibody is added and the mixture is incubated at room temperature for 30 minutes. The plate is washed five times with 200 μl/well PBS/T. 100 μl/well DELFIA® Enhancement Solution is added and the mixture is incubated at room temperature for 5 minutes. 615 nm fluorescence emission is detected using an appropriate Time-Resolved Plate Reader.

The target in data set [3] is T2, full length human Src (Met1-Leu536) (Homo sapiens, UniProt P12931).
T2 construct: full length human Src (Met1-Leu536); GST (N); purchased Cell Signaling Technologies; host or cells: baculovirus expression system
T2 sequence (P12931 whole entry): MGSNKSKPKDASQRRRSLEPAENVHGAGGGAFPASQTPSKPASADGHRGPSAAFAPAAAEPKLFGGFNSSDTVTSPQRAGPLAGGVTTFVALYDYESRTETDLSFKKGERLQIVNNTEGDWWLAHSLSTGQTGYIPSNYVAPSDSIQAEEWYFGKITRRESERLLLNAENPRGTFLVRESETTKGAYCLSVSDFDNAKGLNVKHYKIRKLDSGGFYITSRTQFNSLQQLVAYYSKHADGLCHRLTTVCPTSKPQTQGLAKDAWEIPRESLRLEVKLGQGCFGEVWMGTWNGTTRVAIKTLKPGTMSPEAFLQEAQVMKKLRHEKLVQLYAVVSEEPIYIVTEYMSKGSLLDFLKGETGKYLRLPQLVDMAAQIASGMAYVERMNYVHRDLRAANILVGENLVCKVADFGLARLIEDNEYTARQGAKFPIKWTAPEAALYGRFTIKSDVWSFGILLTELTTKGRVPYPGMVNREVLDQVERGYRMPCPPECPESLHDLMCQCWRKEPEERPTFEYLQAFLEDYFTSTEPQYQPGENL
Description: HTScan tyrosine kinase assay, Src. In kind it is biochemical. On the procedure:
as §1, §2

For data set [4], the target named is T3, human PDGFR-beta (Arg561-Leu1106) (Homo sapiens, UniProt P09619).
T3 construct: fragment (Arg561-Leu1106); GST (N); His6 (N); thrombin cleavage site (N); purchased Cell Signaling Technologies; host or cells: baculovirus expression system
T3 sequence (P09619 561-1106): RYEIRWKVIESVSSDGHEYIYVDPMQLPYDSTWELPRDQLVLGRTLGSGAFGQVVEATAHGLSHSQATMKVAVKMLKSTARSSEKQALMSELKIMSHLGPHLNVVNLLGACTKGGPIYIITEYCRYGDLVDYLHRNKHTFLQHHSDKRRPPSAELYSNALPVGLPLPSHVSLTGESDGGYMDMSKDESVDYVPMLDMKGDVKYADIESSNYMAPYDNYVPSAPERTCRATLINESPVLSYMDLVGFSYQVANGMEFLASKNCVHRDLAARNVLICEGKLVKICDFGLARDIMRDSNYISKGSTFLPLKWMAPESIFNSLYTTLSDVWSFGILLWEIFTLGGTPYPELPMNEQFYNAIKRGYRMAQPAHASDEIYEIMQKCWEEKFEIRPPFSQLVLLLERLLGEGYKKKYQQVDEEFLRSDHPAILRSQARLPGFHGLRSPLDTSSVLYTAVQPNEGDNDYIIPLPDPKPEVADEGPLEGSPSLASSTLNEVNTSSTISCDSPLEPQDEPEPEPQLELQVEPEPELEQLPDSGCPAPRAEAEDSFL
The experiment in a line: HTScan tyrosine kinase assay, PDGFR-beta. In kind it is biochemical. The note with it: read-out: PDGFb IC50. On the procedure:
as §1, §2

Data set [5] has as its target T4, human c-Kit (Thr544-Val976) (Homo sapiens, UniProt P10721).
T4 construct: human c-Kit (Thr544-Val976); GST (N); purchased Cell Signaling Technologies; host or cells: baculovirus expression system
The experiment in a line: HTScan tyrosine kinase assay, c-Kit. Type of data set: biochemical. On the procedure:
as §1, §2

Data set [6] concerns the target Lyn (Homo sapiens, UniProt P07948). Description: Lyn assay (Table B). In kind it is biochemical.
Data set [7] concerns the target Lck (Homo sapiens, UniProt P06239). Description: Lck assay (Table B). Type of data set: biochemical.

Lyn, sequence (P07948 whole entry, species assumed): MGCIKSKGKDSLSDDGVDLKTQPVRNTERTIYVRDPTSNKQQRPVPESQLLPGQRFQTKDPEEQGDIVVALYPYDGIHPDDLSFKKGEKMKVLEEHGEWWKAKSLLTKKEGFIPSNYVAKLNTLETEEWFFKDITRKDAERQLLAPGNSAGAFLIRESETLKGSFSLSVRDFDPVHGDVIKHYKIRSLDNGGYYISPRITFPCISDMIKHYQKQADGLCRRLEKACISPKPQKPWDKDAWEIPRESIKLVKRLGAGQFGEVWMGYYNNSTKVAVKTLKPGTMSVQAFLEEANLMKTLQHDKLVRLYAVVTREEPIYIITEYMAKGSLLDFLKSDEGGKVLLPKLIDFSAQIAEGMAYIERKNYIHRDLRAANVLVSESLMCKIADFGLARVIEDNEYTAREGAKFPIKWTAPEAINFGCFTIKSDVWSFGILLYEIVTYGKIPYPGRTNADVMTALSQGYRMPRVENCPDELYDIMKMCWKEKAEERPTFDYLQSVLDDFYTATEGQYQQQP
T4 sequence (P10721 544-976): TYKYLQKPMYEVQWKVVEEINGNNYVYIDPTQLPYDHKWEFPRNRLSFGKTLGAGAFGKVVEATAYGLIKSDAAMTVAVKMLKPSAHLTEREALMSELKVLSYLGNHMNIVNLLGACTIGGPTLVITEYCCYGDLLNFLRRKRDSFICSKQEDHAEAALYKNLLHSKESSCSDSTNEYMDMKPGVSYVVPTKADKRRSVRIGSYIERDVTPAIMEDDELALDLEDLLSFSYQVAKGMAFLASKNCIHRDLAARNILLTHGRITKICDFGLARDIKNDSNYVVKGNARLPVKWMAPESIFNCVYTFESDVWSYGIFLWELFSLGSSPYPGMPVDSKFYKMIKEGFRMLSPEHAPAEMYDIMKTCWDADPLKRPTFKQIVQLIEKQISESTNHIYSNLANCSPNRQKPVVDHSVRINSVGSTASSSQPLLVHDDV
Lck, sequence (P06239 whole entry, species assumed): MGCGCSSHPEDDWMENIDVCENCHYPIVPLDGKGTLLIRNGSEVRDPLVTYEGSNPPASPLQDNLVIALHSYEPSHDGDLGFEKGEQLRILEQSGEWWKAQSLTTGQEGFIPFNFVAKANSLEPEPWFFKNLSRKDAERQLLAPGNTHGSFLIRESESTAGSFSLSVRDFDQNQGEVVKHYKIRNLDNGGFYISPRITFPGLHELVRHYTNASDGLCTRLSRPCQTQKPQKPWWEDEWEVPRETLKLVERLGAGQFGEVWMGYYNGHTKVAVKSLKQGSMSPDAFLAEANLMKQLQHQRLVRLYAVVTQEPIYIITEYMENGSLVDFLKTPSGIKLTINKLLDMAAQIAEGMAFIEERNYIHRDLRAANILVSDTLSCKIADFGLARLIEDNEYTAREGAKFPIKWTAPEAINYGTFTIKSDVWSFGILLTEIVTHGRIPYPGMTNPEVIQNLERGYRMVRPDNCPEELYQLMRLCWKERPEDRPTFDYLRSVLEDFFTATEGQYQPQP

`Cc1nc(Nc2ncc(C(=O)Nc3c(C)cccc3Cl)s2)cc(N2CCN(CCC(=O)NO)CC2)n1` [Compound 2, N-(2-Chloro-6-methylphenyl)-2-(6-(4-(3-(hydroxyamino)-3-oxopropyl)piperazin-1-yl)-2-methylpyrimidin-4-ylamino)thiazole-5-carboxamide]: the IC50 in data set [1] is 1000 to 10000 nM; in data set [2], under 100 nM; in data set [3], under 100 nM; in data set [4] it was under 100 nM.
In the case of `Cc1nc(NCCCCCC(=O)NO)cc(Nc2ncc(C(=O)Nc3c(C)cccc3Cl)s2)n1` [Compound 23, N-(2-chloro-6-methylphenyl)-2-(6-(6-(hydroxyamino)-6-oxohexylamino)-2-methylpyrimidin-4-ylamino)thiazole-5-carboxamide], the IC50 in data set [1], in data set [2], in data set [3], in data set [5], in data set [4] and in data set [6] was under 100 nM each time. The compound further yielded an IC50 in data set [7] of under 100 nM.
Take `Cc1nc(NCCNCCCCCC(=O)NO)cc(Nc2ncc(C(=O)Nc3c(C)cccc3Cl)s2)n1` [Compound 11, N-(2-chloro-6-methylphenyl)-2-(6-(2-(6-(hydroxyamino)-6-oxohexylamino)ethylamino)-2-methylpyrimidin-4-ylamino)thiazole-5-carboxamide]: the IC50 in data set [1], in data set [2], in data set [3], in data set [5], in data set [4] and in data set [6] was under 100 nM each time. The compound further gave an IC50 in data set [7] of under 100 nM.
On to `Cc1nc(NCCNCC(=O)NO)cc(Nc2ncc(C(=O)Nc3c(C)cccc3Cl)s2)n1` [Compound 7, N-(2-chloro-6-methylphenyl)-2-(6-(2-(2-(hydroxyamino)-2-oxoethylamino)ethylamino)-2-methylpyrimidin-4-ylamino)thiazole-5-carboxamide], for which the IC50 in data set [1] is over 10000 nM; in data set [2], under 100 nM; in data set [3] it was under 100 nM.
For the compound `Cc1nc(Nc2ncc(C(=O)Nc3c(C)cccc3Cl)s2)cc(N2CCN(CCCCC(=O)NO)CC2)n1` [Compound 4, N-(2-chloro-6-methylphenyl)-2-(6-(4-(5-(hydroxyamino)-5-oxopentyl)piperazin-1-yl)-2-methylpyrimidin-4-ylamino)thiazole-5-carboxamide], the half-inhibitory concentration (IC50) was 100 to 1000 nM in data set [1], under 100 nM in data set [2], under 100 nM in data set [3] and under 100 nM in data set [4].
As for `Cc1nc(Nc2ncc(C(=O)Nc3c(C)cccc3Cl)s2)cc(N2CCN(CC(=O)NO)CC2)n1` [Compound 1, N-(2-chloro-6-methylphenyl)-2-(6-(4-(2-(hydroxyamino)-2-oxoethyl)piperazin-1-yl)-2-methylpyrimidin-4-ylamino)thiazole-5-carboxamide], the IC50 in data set [1] was 1000 to 10000 nM; in data set [2] it was under 100 nM; in data set [3], under 100 nM; in data set [4] it was under 100 nM.
For `Cc1nc(Nc2ncc(C(=O)Nc3c(C)cccc3Cl)s2)cc(N2CCN(CCCCCC(=O)NO)CC2)n1` [Compound 5, N-(2-chloro-6-methylphenyl)-2-(6-(4-(6-(hydroxyamino)-6-oxohexyl)piperazin-1-yl)-2-methylpyrimidin-4-ylamino)thiazole-5-carboxamide], the 50% inhibitory concentration (IC50) in data set [1], in data set [2], in data set [3], in data set [5], in data set [4] and in data set [6] was under 100 nM in each case.
Regarding `Cc1nc(NCCCCCCC(=O)NO)cc(Nc2ncc(C(=O)Nc3c(C)cccc3Cl)s2)n1` [Compound 24, N-(2-chloro-6-methylphenyl)-2-(6-(7-(hydroxyamino)-7-oxoheptylamino)-2-methylpyrimidin-4-ylamino)thiazole-5-carboxamide], the melting point was 150.7 °C (dec.). This compound displayed an IC50 in data set [1] of under 100 nM. Further, the concentration for half-maximal inhibition (IC50) in data set [2] was under 100 nM. This compound also had an IC50 in data set [3] of under 100 nM. For the same compound, the IC50 in data set [5] is under 100 nM. Also, the IC50 in data set [4] is under 100 nM. Also, the IC50 in data set [6] was under 100 nM. In data set [7], this compound showed an IC50 of under 100 nM.
On to `Cc1nc(Nc2ncc(C(=O)Nc3c(C)cccc3Cl)s2)cc(N2CCN(CCCC(=O)NO)CC2)n1` [Compound 3, N-(2-chloro-6-methylphenyl)-2-(6-(4-(4-(hydroxyamino)-4-oxobutyl)piperazin-1-yl)-2-methylpyrimidin-4-ylamino)thiazole-5-carboxamide], for which the IC50 in data set [1] was 1000 to 10000 nM; in data set [2] it was under 100 nM; in data set [3], under 100 nM.
For the compound `Cc1nc(Nc2ncc(C(=O)Nc3c(C)cccc3Cl)s2)cc(N2CCN(CCCCCCC(=O)NO)CC2)n1` [Compound 6, N-(2-chloro-6-methylphenyl)-2-(6-(4-(7-(hydroxyamino)-7-oxoheptyl)piperazin-1-yl)-2-methylpyrimidin-4-ylamino)thiazole-5-carboxamide], the IC50 is 100 to 1000 nM in data set [1]; under 100 nM in data set [2]; under 100 nM in data set [3]; under 100 nM in data set [5]; under 100 nM in data set [4]; under 100 nM in data set [6].
For the compound `Cc1nc(N)cc(N(CC(=O)NO)c2ncc(C(=O)Nc3c(C)cccc3Cl)s2)n1` [Compound 30], the IC50 in data set [1] is over 10000 nM; in data set [2], 100 to 1000 nM; in data set [3] it was 100 to 1000 nM.
